Laboratory results: US12319655B2, “RAF kinase inhibitors and methods of use thereof” (Deciphera Pharmaceuticals, LLC, priority 2021, dated 2025)
Read-outs that look alike come from different tables or passages of the source.

Legend:
[1] = molecular target: C-Raf kinase (SEQ. ID NO: 3) (Homo sapiens (Human), UniProt P04049, Y340D/Y341D); test: Biochemical Assay for C-Raf (1); conditions: Table J
How it was run: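 Coupled pyruvate kinase/LDH assay tracking NADH oxidation at 340 nm, with 0.43 nM C-Raf, 30.1 nM MEK and 1 mM ATP in pH 7.5 Tris buffer (15 mM MgCl2, 1% DMSO final). Read continuously for 6 h at 30 °C, rate taken from the 4–5 h window. IC50 from four-parameter fit of percent inhibition.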

[2] = molecular target: A-Raf kinase (SEQ. ID No: 1) (Homo sapiens (Human), UniProt P10398, Y301D/Y302D); test: Biochemical Assay for A-Raf (1); conditions: Table J
A-Raf kinase (SEQ. ID No: 1), sequence (P10398 other isoform, or with tags, fused parts or gaps Y301D (already in the parent)/Y302D (already in the parent)): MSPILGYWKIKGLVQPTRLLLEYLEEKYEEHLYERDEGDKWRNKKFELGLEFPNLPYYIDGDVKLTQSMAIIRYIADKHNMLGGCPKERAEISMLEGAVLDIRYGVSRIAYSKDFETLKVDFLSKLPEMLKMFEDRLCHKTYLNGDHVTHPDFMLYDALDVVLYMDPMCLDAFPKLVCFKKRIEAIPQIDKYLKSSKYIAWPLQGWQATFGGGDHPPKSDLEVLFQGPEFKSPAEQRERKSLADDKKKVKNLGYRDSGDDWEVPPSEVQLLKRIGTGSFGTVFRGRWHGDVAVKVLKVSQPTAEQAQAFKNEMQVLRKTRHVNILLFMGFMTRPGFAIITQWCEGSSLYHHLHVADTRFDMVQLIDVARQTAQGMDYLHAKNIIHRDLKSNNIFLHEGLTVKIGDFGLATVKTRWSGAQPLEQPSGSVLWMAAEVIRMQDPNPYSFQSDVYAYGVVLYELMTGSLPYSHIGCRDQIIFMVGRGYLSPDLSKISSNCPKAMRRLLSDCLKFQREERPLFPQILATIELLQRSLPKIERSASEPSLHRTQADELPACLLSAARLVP
How it was run: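 A-Raf Y301D/Y302D at 5.55 nM phosphorylates 30.1 nM MEK with 1 mM ATP in pH 7.5 Tris buffer, 1% DMSO. Activity was read continuously as NADH oxidation at 340 nm in a pyruvate kinase/lactate dehydrogenase coupled system for 6 h at 30 °C. Rates from 4–5 h were converted to percent inhibition, and IC50 came from a four-parameter fit.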

[3] = molecular target: B-Raf (V600E) (SEQ. ID NO: 4) kinase (Homo sapiens (Human), UniProt P15056, V600E); test: Biochemical Assay for B-Raf (V600E) (1); conditions: Table J, BRAF V600E
B-Raf (V600E) (SEQ. ID NO: 4) kinase, sequence (P15056 416-766 V600E): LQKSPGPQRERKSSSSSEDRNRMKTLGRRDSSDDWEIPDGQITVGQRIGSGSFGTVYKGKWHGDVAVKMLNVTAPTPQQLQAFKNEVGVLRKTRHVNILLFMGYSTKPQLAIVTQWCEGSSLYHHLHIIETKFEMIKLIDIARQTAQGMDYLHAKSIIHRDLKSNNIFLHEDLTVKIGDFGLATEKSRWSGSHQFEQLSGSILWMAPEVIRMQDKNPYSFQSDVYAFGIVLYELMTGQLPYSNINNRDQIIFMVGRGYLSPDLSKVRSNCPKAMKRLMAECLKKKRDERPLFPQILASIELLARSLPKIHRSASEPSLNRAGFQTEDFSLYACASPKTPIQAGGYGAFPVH
How it was run: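 Coupled pyruvate kinase/lactate dehydrogenase assay: 0.03 nM B-Raf V600E, 30.1 nM MEK, 1 mM ATP, pH 7.5 Tris/MgCl2 buffer, 1% DMSO. NADH oxidation followed at 340 nm for 6 h at 30 °C; rate from 3–4 h converted to percent inhibition, IC50 by four-parameter fit.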

[4] = biochemical assay (1), read-out: CRAF (1)
[5] = biochemical assay (1), read-out: ARAF (1)
[6] = biochemical assay (1), read-out: BRAF VE (1)

C-Raf kinase (SEQ. ID NO: 3), sequence (P04049 307-648 Y340D/Y341D): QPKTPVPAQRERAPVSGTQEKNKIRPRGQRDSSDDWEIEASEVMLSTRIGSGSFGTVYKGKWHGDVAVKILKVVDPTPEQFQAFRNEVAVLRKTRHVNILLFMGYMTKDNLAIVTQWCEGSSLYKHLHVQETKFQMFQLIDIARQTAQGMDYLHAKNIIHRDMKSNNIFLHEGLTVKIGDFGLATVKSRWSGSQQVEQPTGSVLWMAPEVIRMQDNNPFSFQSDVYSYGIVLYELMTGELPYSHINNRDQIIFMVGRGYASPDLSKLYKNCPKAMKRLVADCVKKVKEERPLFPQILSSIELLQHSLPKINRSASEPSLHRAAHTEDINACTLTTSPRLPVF

Structure (SMILES)	IC50 ([1]; assay version (1), read-out: CRAF (1) IC50)	IC50 ([2]; assay version (1), read-out: ARAF (1) IC50)	IC50 ([3]; assay version (1), read-out: BRAF VE (1) IC50)	IC50 [1, 4]	IC50 [2, 5]	IC50 [3, 6]
CNC(=O)c1cc(-c2cncc(-c3cc(C(=O)Nc4cnn(C(C)C)c4)ccc3C)n2)ccn1 [Example 81]	100 to 500 nM	1000 to 10000 nM	≤ 100 nM	–	–	–
Cc1ccc(NC(=O)c2cn(C(C)C)nc2C)cc1-c1cc(-c2ccnc(NC(=O)C3CC3)c2)cnn1 [Example 373]	–	–	–	≤ 100 nM	1000 to 10000 nM	100 to 500 nM
CNC(=O)c1cc(-c2cnnc(-c3cc(NC(=O)CCC4(F)CC4)cnc3C)c2)ccn1 [Example 374]	–	–	–	1000 to 10000 nM	1000 to 10000 nM	1000 to 10000 nM
COC(=O)Nc1cc(-c2cnnc(-c3cc(NC(=O)c4ccnc(C(C)(C)F)c4)ccc3C)c2)ccn1 [Example 375]	–	–	–	≤ 100 nM	1000 to 10000 nM	≤ 100 nM
CNC(=O)c1cc(-c2ccnc(-c3cc(NC(=O)c4ccnc(C(C)(C)C#N)c4)ccc3C)c2)ccn1 [Example 376]	–	–	–	≤ 100 nM	1000 to 10000 nM	≤ 100 nM
Cc1ccc(NC(=O)c2cc(C3CC3)n(C)n2)cc1-c1cc(-c2ccnc(NC(=O)C3CC3)c2)cnn1 [Example 377]	–	–	–	≤ 100 nM	1000 to 10000 nM	≤ 100 nM
CNC(=O)c1cc(-c2ccnc(-c3cc(NC(=O)c4ccnc(C(C)(C)F)c4)ccc3C)c2)ccn1 [Example 378]	–	–	–	≤ 100 nM	1000 to 10000 nM	≤ 100 nM
Cc1ccc(NC(=O)c2ccnc(C(C)(C)F)c2)cc1-c1cncc(-c2ccnc(C(N)=O)c2)c1 [Example 380]	–	–	–	≤ 100 nM	1000 to 10000 nM	≤ 100 nM
Cc1ccc(NC(=O)c2cnn(CC(F)(F)F)c2)cc1-c1cncc(-c2ccnc(C(N)=O)c2)c1 [Example 381]	–	–	–	≤ 100 nM	1000 to 10000 nM	100 to 500 nM
CNC(=O)c1cc(-c2cncc(-c3cc(NC(=O)c4cnn(CC(F)(F)F)c4)ccc3C)c2)ncn1 [Example 382]	–	–	–	≤ 100 nM	1000 to 10000 nM	100 to 500 nM
CNC(=O)c1cc(-c2cncc(-c3cc(NC(=O)Cn4cc(C(C)C)nn4)ccc3C)c2)ncn1 [Example 383]	–	–	–	100 to 500 nM	1000 to 10000 nM	1000 to 10000 nM
Cc1ncc(NC(=O)c2ccnc(C(C)(C)C#N)c2)cc1-c1cccc(-c2ncnn3cccc23)c1 [Example 385]	–	–	–	100 to 500 nM	1000 to 10000 nM	≤ 100 nM
COC(=O)Nc1cc(-c2cc(-c3cc(NC(=O)c4ccnc(C(C)(C)F)c4)c(F)cc3C)cc(C)n2)ccn1 [Example 386]	–	–	–	≤ 100 nM	1000 to 10000 nM	≤ 100 nM
Cc1ccc(NC(=O)[C@H]2CCO[C@@H](C(C)C)C2)cc1-c1cc(-c2ccnc(NC(=O)C3CC3)c2)cnn1 [Example 388]	–	–	–	≤ 100 nM	1000 to 10000 nM	100 to 500 nM
Cc1ccc(NC(=O)[C@H]2CCO[C@H](C(C)C)C2)cc1-c1cc(-c2ccnc(NC(=O)C3CC3)c2)cnn1 [Example 389]	–	–	–	≤ 100 nM	1000 to 10000 nM	100 to 500 nM
CNC(=O)c1cc(-c2ccnc(-c3cc(NC(=O)CCC4(F)CC4)ccc3C)c2)ccn1 [Example 392]	–	–	–	100 to 500 nM	1000 to 10000 nM	1000 to 10000 nM
Cc1cc(F)c(NC(=O)c2ccnc(C(C)(C)F)c2)cc1-c1cncc(-c2ccnc(NC(=O)C3CC3)c2)c1 [Example 399]	–	–	–	≤ 100 nM	500 to 1000 nM	≤ 100 nM
Cc1ccc(NC(=O)c2ccnc(C(C)(C)F)c2)cc1-c1cc(-c2ccnc3[nH]ncc23)cnn1 [Example 400]	–	–	–	≤ 100 nM	1000 to 10000 nM	100 to 500 nM
COC(=O)Nc1cc(-c2cccc(-c3cc(NC(=O)c4ccnc(C(C)(C)F)c4)cnc3C)c2)ccn1 [Example 402]	–	–	–	≤ 100 nM	1000 to 10000 nM	≤ 100 nM
COC(=O)Nc1cc(-c2ccnc(-c3cc(NC(=O)c4ccnc(C(C)(C)F)c4)ccc3C)n2)ccn1 [Example 403]	–	–	–	≤ 100 nM	1000 to 10000 nM	≤ 100 nM
